Data on five compounds can be found in patent US20090099243A1, “ORGANIC COMPOUNDS” (priority 2007, published 2009).

For test [1], the system named is ethanol self-administration in rats. The note with it: icv administration; cited from earlier work.
Test [2] has as its target T1, recombinant human NPY Y2 receptors (Homo sapiens, UniProt P49146).
T1 construct: expressed in transfected cells; host or cells: CHO-C4 cells (membrane preparation)
T1 sequence (P49146 1-381): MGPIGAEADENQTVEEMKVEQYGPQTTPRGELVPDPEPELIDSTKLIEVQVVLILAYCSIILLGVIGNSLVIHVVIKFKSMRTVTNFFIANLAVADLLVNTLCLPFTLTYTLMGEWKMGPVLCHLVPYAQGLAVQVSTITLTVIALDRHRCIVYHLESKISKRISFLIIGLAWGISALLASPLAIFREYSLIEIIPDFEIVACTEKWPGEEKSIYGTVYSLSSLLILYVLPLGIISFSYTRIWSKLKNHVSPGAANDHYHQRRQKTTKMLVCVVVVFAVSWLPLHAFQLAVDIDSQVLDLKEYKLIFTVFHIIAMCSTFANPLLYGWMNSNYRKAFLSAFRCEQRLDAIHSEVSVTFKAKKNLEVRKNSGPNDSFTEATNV
As to the kind of experiment: Scintillation proximity [35S]GTPγS binding assay (inhibition of 0.5 nM NPY-stimulated [35S]GTPγS binding). The note with it: 10 μM compound, CHO-C4 membranes; for inhibition at 10 µM: read-out: [%] inhibiton at 10 μM. In kind it is biochemical. The protocol:
Preparation of Membranes: CHO—C4 cells expressing recombinant human NPY Y2 receptors were used to prepare membranes for the GTPγS assay. Cells were grown to 80-95% confluency on 15-cm (225 cm^2) tissue culture plates. After aspiration of the culture medium, cells were washed twice with 18 ml ice-cold phosphate-buffered saline (PBS), scraped off and suspended in 3 ml ice-cold PBS in pre-cooled centrifuge tubes. The dishes were rinsed with 2 ml ice-cold PBS per dish and the washings were combined with the PBS cell suspension from above. Cells pooled from 5-7 dishes were centrifuged for 5 min at 10,000 rpm (12,000 g) in a Sorvall RC5B centrifuge using an SS34 rotor at 4° C. The cell pellet was resuspended in 5 ml ice-cold buffer (20 mM HEPES, 10 mM EDTA; pH 7.4) by vortexing (2-5 sec), homogenized using a Polytron (step 4 for 20-30 sec), and ice-cold buffer added to 25 ml. The suspension was centrifuged again for 20 min at 18,000 rpm (39,000 g) at 4° C. and the pellet resuspended in 5 ml ice-cold buffer (20 mM HEPES, 0.1 mM EDTA; pH 7.4) by vortexing (2-5 sec), homogenized with a Polytron (step 4 for 10 sec), and ice-cold buffer added to 25 ml. The suspension was centrifuged a third time for 20 min at 18,000 rpm (39,000 g) at 4° C. The pellet was resuspend in 1 ml ice-cold buffer (20 mM Hepes, 0.1 mM EDTA; pH 7.4) by vortexing (5-8 sec). Two to five resuspended pellets were combined and homogenized using a Polytron (step 4 for 15-25 sec). A small aliquot (20-50 μl) was removed for protein determination by the Coomassie Plus Protein Assay Reagent (Pierce) using BSA as standard. The membrane suspension was aliquoted in pre-cooled (on dry ice) Eppendorf tubes (0.25-1 ml/tube affording approximately 0.5-2 mg of membrane protein/tube). The pellets were frozen and stored at −80° C.
Scintillation proximity [^35S]GTPγS binding assay: Frozen membranes from CHO—C4 cells expressing recombinant human NPY Y2 receptors (2 mg for four 96-well plates) were thawed on ice. Thawed membranes were pipetted into 10 ml of assay buffer (20 mM. HEPES, 10 mM MgCl2, 100 mM NaCl, pH 7.4) and homogenized briefly using a Polytron. The final assay mixture was prepared in 96-well microtiter plates (Isoplate Wallac, Perkin Elmer). The composition of the assay mixtures in a final volume of 250 μl per well was as follows: 20 mM HEPES, 10 mM MgCl2, 100 mM NaCl, pH 7.4, 30 μM GDP, 1 mg/ml BSA (added fresh), 5 μg membrane protein, 1.5 mg Wheatgerm agglutinin SPA beads (Amersham), 0.45 nM [^35S]GTPγS (Amersham, SJ1308, 1000 Ci/mmol, stabilized solution), and the test compounds (agonists and/or antagonists) at the appropriate concentrations. The samples were incubated at room temperature for 90 min by shaking, after which the SPA beads were sedimented by centrifugation in an Eppendorf 5804 centrifuge at 2700 rpm for 10 min at room temperature. After 60 min the plates were counted in a TopCount (Canberra). Basal [^35S]GTPγS binding was measured in the absence of agonist (NPY). Non-specific binding was measured in the presence of excess (10 μM) unlabelled GTPγS (Sigma). Nonspecific binding never exceeded 10% of basal binding and was thus not subtracted from the experimental data. Antagonists were tested for the inhibition of 0.5 nM NPY-stimulated [^35S]GTPγS binding. Antagonist inhibition curves were analyzed by non-linear regression using GraphPad Prism software (Version 4.0, GraphPad Software Inc., CA, USA).
Antagonistic activity of compounds of the present invention was examined by the Scintillation proximity [35S]GTPγS binding assay as described above (inhibition of 0.5 nM NPY-stimulated [^35S]GTPγS binding). The table below represents percentages of inhibition at a concentration of 10 μM.

For test [3], the system named is normal gastric emptying in mice. The experiment in a line: Normal gastric emptying in mice by Near Infrared FluoRescent (NIRF) imaging. The note with it: imaging 15 minutes after gavage, vehicle control 70%. Format: in vivo, C57/BI6 mice. The protocol: The effect of Example 33, (−)-1-(3,5-Dimethyl-isoxazol-4-yl)-3-{4-[2-(S)-2,5-dioxo-4-phenyl-4-propyl-imidazolidin-1-yl)-acetyl]-3-fluoro-phenyl}-urea, on normal gastric emptying in mice is assessed by means of Near Infrared FluoRescent (NIRF) imaging. The NIRF method is described in detail in the publication by Gremlich et al (J. Mol. Imaging, 2004, 3(4), 303-311). In short, C57/BI6 mice are gavaged 0.2 ml test meal (Isosource Standard meal, Novartis Medical Nutrition, Germany) that contains 7.5 g methylcellulose and 5 g Tentagel fluorescent beads (TentaGel MB-NH2, particle size […], capacity 0.2-0.3 mmol/g; Rapp Polymere, Tubingen, Germany) per 100 ml and immediately returned to their cages. 15 minutes after the gavage mice are anaesthetized using isoflurane and prepared for NIRF imaging. Images from the gastric and intestinal areas are taken and the percentage of food emptied from the stomach is calculated as the ratio of fluorescence measured in the intestines and the stomach. Example 33 was dissolved in 1-methyl-2-pyrrolidon, polyethyleenglycol-300 and 5% dextrose solution (w/v) in the following proportion (v/v): 10%, 30% and 60% respectively and injected intraperitoneally 30 minutes before the administration of the test meal. In the vehicle control group (n=6), 70% of the meal was emptied from the stomach.

Regarding `N=C(N)NCCC[C@H](NC(=O)CC1(CC(=O)N2CCN(C3c4ccccc4NC(=O)c4ccccc43)CC2)CCCC1)C(=O)NCCn1c(=O)n(-c2ccccc2)n(-c2ccccc2)c1=O` (stereo partly shown) [BIIE0246], the “effect on ethanol self-administration” value in test [1] is given as “dose dependently reduced ethanol self-administration”.
As for `CCC[C@@]1(c2ccccc2)NC(=O)N(CC(=O)c2ccc(NC(=O)Nc3c(C)noc3C)cc2F)C1=O` [Example 33, (−)-1-(3,5-Dimethyl-isoxazol-4-yl)-3-{4-[2-((S)-2,5-dioxo-4-phenyl-4-propyl-imidazolidin-1-yl)-acetyl]-3-fluoro-phenyl}-urea], the inhibition at 10 µM in test [2] is 95%. Further, the “percentage of the meal emptied from the stomach” value is 80% in test [3] (0.3 mg/kg intraperitoneally 30 minutes before test meal) and 81% in test [3] (1 mg/kg intraperitoneally 30 minutes before test meal).
In the case of `COc1ccc(CC(=O)Nc2ccc(C(=O)CN3C(=O)NC(c4ccccc4)(c4ccc(C)cc4)C3=O)cc2)c(OC)c1` (racemic) [Example 41, (±)-2-2,4-Dimethoxy-phenyl)-N-{4-[2-(2,5-dioxo-4-phenyl-4-p-tolyl-imidazolidin-1-yl)-acetyl]-phenyl}-acetamide], in test [2], the “[%] inhibiton at 10 μM” value was 60%.
As to `Cc1cnn(C)c1CC(=O)Nc1ccc(C(=O)CN2C(=O)NC(c3ccccc3)(c3ccccc3)C2=O)cc1` [Example 49, 2-(2,4-Dimethyl-2H-pyrazol-3-yl)-N-{4-[2-(2,5-dioxo-4,4-diphenyl-imidazolidin-1-yl)-acetyl]-phenyl}-acetamide], in test [2], the inhibition at 10 µM turned out to be 64%.
With `CCC1(c2ccccc2)NC(=O)N(CC(=O)c2ccc(NC(=O)Nc3c(C)noc3C)cc2)C1=O` (racemic) [Example 2, (±)-1-(3,5-Dimethyl-isoxazol-4-yl)-3-{4-[2-(4-ethyl-2,5-dioxo-4-phenyl-imidazolidin-1-yl)-acetyl]-phenyl}-urea], the inhibition at 10 µM in test [2] was found to be 98%.
